Reference: US12729377B2, “RNAi agents and compositions for inhibiting expression of angiopoietin-like 3 (ANGPTL3), and methods of use” (Arrowhead Pharmaceuticals, Inc., priority 2017, dated 2026)
In the oligonucleotide strings, read from the 5' end, every base follows the letter of its sugar. An asterisk marks phosphorothioate; unmarked linkages are phosphodiester. Other units and linkages are bracketed, terminal groups are in braces. A string of capitals states the bases alone. {NAG37} = tridentate N-acetyl-galactosamine targeting ligand, structure (NAG37)s; [invAb] = inverted abasic unit; m = 2'-O-methyl; f = 2'-fluoro

Assays:
[1] = system: ANGPTL3 mRNA; experiment: Example 12: liver ANGPTL3 mRNA by RT-qPCR in LDLR knockout mice; assay type: in vivo, LDLR KO mice; conditions: for Avg Relative ANGPTL3 mRNA, Normalized to Control: normalized to Group 1 day 15
Source text: To evaluate the effect of RNAi agent administration in a disease model, mice having a genetic mutation for the LDL receptor (referred to herein as LDLR KO mice) were commercially obtained (The Jackson Laboratory). The LDLR KO mice are homozygous for the Ldlr^tm1Her mutation, and have elevated serum cholesterol levels, particularly when placed on a high fat diet. For three weeks prior to the onset of the study, thirty-nine (39) LDLR KO mice were placed on a high fat diet (Teklad Custom Diets TD.88137). An additional eight (8) LDLR KO mice were placed on a normal chow diet over the same three-week period. Pre-dose serum samples were taken on day −15 and day −1 after a four hour fast. At day 1, each mouse was given a single subcutaneous administration of 200 μl/30 g animal body weight containing the respective mg/kg dose of an ANGPTL3 RNAi agent in D5W (dextrose in 5% water), control (D5W) with no RNAi agent, or a control RNAi agent that included a nucleotide sequence designed to target the Hepatitis B Virus (HBV) genome. A second injection of the same formulation was administered to the animals on day 29. The dosing regimen for the study is recited in the following Table 60:
Each mouse remained on its respective diet through the duration of study. The RNAi agent tested (AD05488) included a modified sequence and an N-acetyl-galactosamine-containing targeting ligand conjugated to the 5′ terminal end of the sense strand. (See Tables 3, […] modified sequences and targeting ligand structures). The injections were performed between the skin and muscle (i.e. subcutaneous injections) into the loose skin over the neck and shoulder area. Serum was collected on days 8, 15, 22, 29 (pre-second dose), 36, 43, 50, and 57. LDLR KO mice were fasted for four hours prior to each collection. On day 15, four (4) LDLR KO mice from Groups 1, 2, and 3 (i.e., the groups being administered the high fat “Western” diet) were sacrificed after serum collection, and on day 29, an additional four (4) LDLR KO mice from Groups 1, 2, and 3 were sacrificed after serum collection, for the purpose of performing mRNA assessments.
Additionally, ANGPTL3 mRNA levels were also assessed. On day 15, four (4) mice were sacrificed from each of Groups 1, 2, and 3. On day 29, an additional four (4) mice were sacrificed from each of Groups 1, 2, and 3. On day 57, all remaining animals from all Groups were sacrificed. At sacrifice, livers were harvested, and approximately 100 mg liver samples from the median lobes were collected and snap-frozen in liquid nitrogen for RNA isolation. Levels of ANGPTL3 mRNA in the mice livers were then measured by RT-qPCR, and normalized to the mRNA levels of the mice in Group 1 (high fat “Western” diet; D5W administration; day 15 sacrifice), the results of which are set forth in the following Table 66: […]

[2] = system: ANGPTL3 gene; experiment: Example 14: RNAi agent and statin, serum total cholesterol in LDLR knockout mice; assay type: in vivo, LDLR KO mice
Source text: To evaluate the effect of co-administration of RNAi agents and statins in a disease model, LDLR KO mice were commercially obtained (The Jackson Laboratory). For three weeks prior to the onset of the study, forty-one (41) male 7 to 8 week old LDLR KO mice were placed on a high fat (“western”) diet (Teklad Custom Diets TD.88137), and remained on that diet throughout the duration of the study. Pre-dose serum samples were taken on study Day 1 after a four hour fast. The dosing regimen for the study is recited in the following Table 72:
• Mice were treated at 40 mg/kg for the first 11 days, then switched to 20 mg/kg thereafter.
The vehicle used for the oral gavage in the study was a 1:1 mixture of Ora-Plus®: Ora-Sweet® solution, which were acquired commercially. For the preparation of the atorvastatin oral gavage administrations, the respective desired dose of atorvastatin was first dissolved in sterile water (0.3 mL water per 1 mL of desired formulation) and vortexed until smooth, followed by the addition of a mixture of 1:1 Ora-Plus®: Ora-Sweet® solution (0.7 mL vehicle per 1 mL of desired formulation) and vortexed. On day 1 and for each day thereafter an oral gavage dose was administered for each of the Groups except for Group 2. On Day 23, Groups 1, 2, 3, and 4 received a single subcutaneous administration of 2.5 mg/kg dose ([…] solution) of an ANGPTL3 RNAi agent in D5W (dextrose in 5% water), or vehicle control (D5W) with no RNAi agent.
The RNAi agent tested (AD05488) included a modified sequence and an N-acetyl-galactosamine-containing targeting ligand conjugated to the 5′ terminal end of the sense strand. (See Tables 3, 4, and 5 for modified sequences and targeting ligand structures). The injections were performed between the skin and muscle (i.e. subcutaneous injections) into the loose skin over the neck and shoulder area. Serum was collected on days 8, 15, 22 (pre-RNAi agent injection), 29, 36, 43, and 50. LDLR KO mice were fasted for four hours prior to each collection.
ANGPTL3 protein levels in serum were measured by ELISA assay (R&D Systems), according to the manufacturer's recommendations. Among other biomarkers, triglycerides, total cholesterol, and low-density lipoprotein (LDL) in serum were measured on a Cobas® Integra 400 (Roche Diagnostics), according to the manufacturer's recommendations.
The ANGPTL3 protein levels, triglyceride levels, total cholesterol levels, HDL levels, and LDL levels for each animal were normalized. For normalization, respective levels of ANGPTL3 protein, TG, total cholesterol, or LDL for each animal at a time point was divided by the pre-treatment level of expression in that animal (in this case pre-dose levels on Day 1) to determine the ratio of expression “normalized to pre-treatment.” Data from the study set forth in this Example are shown in the following Tables 73-76: […]

**Q.** For “AD05488: RNAi agent duplex: antisense AM07235-AS, sense AM07234-SS (antisense mU*fA*mC*fUmGfAmUfCmAfAmAfUmAfUmGfUmUfGmAfG*mC; sense {NAG37}*[invAb]*mGmCmUmCmAmAmCmAfUfAfUmUmUmGmAmUmCmAmGmUmA*[invAb])”, which “Avg Relative ANGPTL3 mRNA, Normalized to Control” value ([1]; 3.0 mg/kg days 1 and 29, high fat diet, day 57 sacrifice) is on record?
**A.** 0.024

**Q.** What about the “Avg Relative ANGPTL3 mRNA, Normalized to Control” value ([1]; 3.0 mg/kg days 1 and 29, normal chow, day 57 sacrifice) of the same substance?
**A.** 0.060

**Q.** And the “Avg Relative ANGPTL3 mRNA, Normalized to Control” value ([1]; 3.0 mg/kg, high fat diet, day 15 sacrifice)?
**A.** 0.019

**Q.** And the “Avg Relative ANGPTL3 mRNA, Normalized to Control” value ([1]; 3.0 mg/kg, high fat diet, day 29 sacrifice)?
**A.** 0.032

**Q.** And the “reduction in ANGPTL3 mRNA levels” value ([1]; both high fat Western diet and normal chow-fed diet, LDLR KO mice)?
**A.** significant reduction

**Q.** And the “Avg Total Chol normalized to pre-treatment” value (shortened to “Avg Total Chol normalized”) ([2]; Group 2: no gavage, 2.5 mg/kg AD05488 SC on day 23, Day 8 (pre-RNAi agent injection))?
**A.** 0.962

**Q.** And the “Avg Total Chol normalized” value ([2]; Group 2: no gavage, 2.5 mg/kg AD05488 SC on day 23, Day 15 (pre-RNAi agent injection))?
**A.** 1.122

**Q.** And the “Avg Total Chol normalized” value ([2]; Group 2: no gavage, 2.5 mg/kg AD05488 SC on day 23, Day 22 (pre-RNAi agent injection))?
**A.** 1.261

**Q.** And the “Avg Total Chol normalized” value ([2]; Group 2: no gavage, 2.5 mg/kg AD05488 SC on day 23, Day 29)?
**A.** 0.645

**Q.** What about the “Avg Total Chol normalized” value ([2]; Group 2: no gavage, 2.5 mg/kg AD05488 SC on day 23, Day 36) of the same substance?
**A.** 0.518

**Q.** And the “Avg Total Chol normalized” value ([2]; Group 2: no gavage, 2.5 mg/kg AD05488 SC on day 23, Day 43)?
**A.** 0.512

**Q.** And the “Avg Total Chol normalized” value ([2]; Group 2: no gavage, 2.5 mg/kg AD05488 SC on day 23, Day 50)?
**A.** 0.515

**Q.** And the “Avg Total Chol normalized” value ([2]; Group 3: 10 mg/kg daily oral gavage atorvastatin, 2.5 mg/kg AD05488 on day 23, Day 8 (pre-RNAi agent injection))?
**A.** 0.763

**Q.** What about the “Avg Total Chol normalized” value ([2]; Group 3: 10 mg/kg daily oral gavage atorvastatin, 2.5 mg/kg AD05488 on day 23, Day 15 (pre-RNAi agent injection)) of the same substance?
**A.** 0.620

**Q.** What about the “Avg Total Chol normalized” value ([2]; Group 3: 10 mg/kg daily oral gavage atorvastatin, 2.5 mg/kg AD05488 on day 23, Day 22 (pre-RNAi agent injection)) of the same substance?
**A.** 0.758

**Q.** What about the “Avg Total Chol normalized” value ([2]; Group 3: 10 mg/kg daily oral gavage atorvastatin, 2.5 mg/kg AD05488 on day 23, Day 29) of the same substance?
**A.** 0.444

**Q.** What about the “Avg Total Chol normalized” value ([2]; Group 3: 10 mg/kg daily oral gavage atorvastatin, 2.5 mg/kg AD05488 on day 23, Day 36) of the same substance?
**A.** 0.362

**Q.** And the “Avg Total Chol normalized” value ([2]; Group 3: 10 mg/kg daily oral gavage atorvastatin, 2.5 mg/kg AD05488 on day 23, Day 43)?
**A.** 0.331

**Q.** What about the “Avg Total Chol normalized” value ([2]; Group 3: 10 mg/kg daily oral gavage atorvastatin, 2.5 mg/kg AD05488 on day 23, Day 50) of the same substance?
**A.** 0.322

**Q.** And the “Avg Total Chol normalized” value ([2]; Group 4: 20 mg/kg* daily oral gavage atorvastatin (40 mg/kg first 11 days), 2.5 mg/kg AD05488 on day 23, Day 8 (pre-RNAi agent injection))?
**A.** 0.682

**Q.** What about the “Avg Total Chol normalized” value ([2]; Group 4: 20 mg/kg* daily oral gavage atorvastatin (40 mg/kg first 11 days), 2.5 mg/kg AD05488 on day 23, Day 15 (pre-RNAi agent injection)) of the same substance?
**A.** 0.622

**Q.** And the “Avg Total Chol normalized” value ([2]; Group 4: 20 mg/kg* daily oral gavage atorvastatin (40 mg/kg first 11 days), 2.5 mg/kg AD05488 on day 23, Day 22 (pre-RNAi agent injection))?
**A.** 0.857

**Q.** What about the “Avg Total Chol normalized” value ([2]; Group 4: 20 mg/kg* daily oral gavage atorvastatin (40 mg/kg first 11 days), 2.5 mg/kg AD05488 on day 23, Day 29) of the same substance?
**A.** 0.448

**Q.** What about the “Avg Total Chol normalized” value ([2]; Group 4: 20 mg/kg* daily oral gavage atorvastatin (40 mg/kg first 11 days), 2.5 mg/kg AD05488 on day 23, Day 36) of the same substance?
**A.** 0.295

**Q.** And the “Avg Total Chol normalized” value ([2]; Group 4: 20 mg/kg* daily oral gavage atorvastatin (40 mg/kg first 11 days), 2.5 mg/kg AD05488 on day 23, Day 43)?
**A.** 0.293

**Q.** What about the “Avg Total Chol normalized” value ([2]; Group 4: 20 mg/kg* daily oral gavage atorvastatin (40 mg/kg first 11 days), 2.5 mg/kg AD05488 on day 23, Day 50) of the same substance?
**A.** 0.310

**Q.** And the “total reductions in total cholesterol” value ([2]; co-administration of atorvastatin and RNAi agent (Groups 3 and 4), LDLR KO mice on high fat diet)?
**A.** ~ 70%
